# Data published in patent publication US20040197855A1, “Test system for determining gene toxicities” (priority 2001, published 2004).
# Columns and labels:
# [1] = tested on: yeast and mammalian cells; conditions: cited from earlier work
# [2] = tested on: rats; conditions: cited from earlier work
# [3] = tested on: mice; conditions: cited from earlier work
# [4] = tested on: Salmonella typhimurium; conditions: cited from earlier work
# [5] = tested on: GalER-VP; experiment: Estradiol-inducible expression of I-SceI meganuclease in KMV cells; assay type: cell-based, human; conditions: KMV clones with genomic pGC-Sce; Gal4 recognition sequence promoter
# Source text: In order to achieve controlled meganuclease expression because of the antiproliferative effect of DSBs, the extremely reliable, β-estradiol-inducible expression system was selected according to a preferred embodiment of the invention (Braselmann, S. et al. (1993) Proc. Natl. Acad. Sci. USA 90: 1657-1661; Dudenhöffer, C. (1999) Oncogene 18: 5773-5784). The expression system couples the so-called Gal4ER transcription factor to an expression cassette controlled by a Gal4ER-responsive promoter (compare FIG. 2). Gal4ER represents a fusion protein of the DNA binding domain of the Gal4 transcription factor with the strong, viral VP16 transactivator domain and a β-estradiol binding domain of the human β-estradiol receptor, making Gal4ER functionally inducible as transcription factor by β-estradiol. This principle of conditional expression permits an inducible increase in protein expression by at least one order of magnitude. […] Inducible I-SceI expression was detected in Western blot experiments. […]
Structure (SMILES),recombination events leading to deletions [1],tumours in rats [2],tumours in mice [3],result in the Ames assay [4],lowest concentration for complete promoter induction [5] [nM]
Cc1ccccc1N [o-toluidine],triggered,cause tumours,cause tumours,negative,–
C[C@]12CC[C@@H]3c4ccc(O)cc4CC[C@H]3[C@@H]1CC[C@@H]2O [β-estradiol],–,–,–,–,50
